Results from patent US20230022157A1 (Achillion Pharmaceuticals, Inc., priority 2018, published 2023).

Each molecule was assayed against T1, Human Factor D (Homo sapiens, UniProt P00746) (assay: Human Factor D Assay). Details: Human Factor D 80 nM, substrate Z-L-Lys-SBzl, assay of Example 3; read-out: IC50 (Stars).
T1 construct: purified from human serum; purchased Complement Technology, Inc; host or cells: human serum (natural protein, not recombinant)
Type: biochemical
Outline: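 Serum-purified human factor D (80 nM final) preincubated 5 min at room temperature with test compound in 50 mM Tris, 1M NaCl, pH 7.5. Z-L-Lys-SBzl substrate and DTNB then added, each at 100 μM final. IC50 from nonlinear regression of reaction rate against compound concentration.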

T1 sequence (P00746 26-253): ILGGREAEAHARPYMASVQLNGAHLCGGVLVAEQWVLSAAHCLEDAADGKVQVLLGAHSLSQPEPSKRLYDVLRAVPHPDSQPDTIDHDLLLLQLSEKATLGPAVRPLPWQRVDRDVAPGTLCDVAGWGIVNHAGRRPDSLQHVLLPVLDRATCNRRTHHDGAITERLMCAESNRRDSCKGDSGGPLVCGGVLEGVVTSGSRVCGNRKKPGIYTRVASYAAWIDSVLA

Row | IC50 [nM] | Structure (SMILES)
1 | < 1000 | COC(=O)c1ncc(-c2cc(C)c3c(c2)c(C(C)=O)nn3CC(=O)N2[C@H](C(=O)Nc3nc(Br)ccc3C)C[C@@]3(C)C[C@@H]23)cn1 [Compound 38, methyl 5-(3-acetyl-1-(2-((1R,3S,5R)-3-((6-bromo-3-methylpyridin-2-yl)carbamoyl)-5-methyl-2-azabicyclo[3.1.0]hexan-2-yl)-2-oxoethyl)-7-methyl-1H-indazol-5-yl)pyrimidine-2-carboxylate]
2 | < 1000 | CC(=O)c1nn(CC(=O)N2[C@H](C(=O)Nc3nc(Br)ccc3C)C[C@@]3(C)C[C@@H]23)c2c(C)cc(-c3cnc(C)nc3O)cc12 [Compound 28, (1R,3S,5R)-2-(2-(3-acetyl-5-(4-hydroxy-2-methylpyrimidin-5-yl)-7-methyl-1H-indazol-1-yl)acetyl)-N-(6-bromo-3-methylpyridin-2-yl)-5-methyl-2-azabicyclo[3.1.0]hexane-3-carboxamide]
3 | < 1000 | CC(=O)c1nn(CC(=O)N2[C@H](C(=O)N[C@H](C)CCc3ccccc3)C[C@@]3(C)C[C@@H]23)c2ccc(-c3cnc(C)nc3)cc12 [Compound 13, (1R,3S,5R)-2-(2-(3-Acetyl-5-(2-methylpyrimidin-5-yl)-1H-indazol-1-yl)acetyl)-5-methyl-N—((R)-4-phenylbutan-2-yl)-2-azabicyclo[3.1.0]hexane-3-carboxamide]

Row | Structure (SMILES) | IC50 [nM]
4 | CC(=O)c1nn(CC(=O)N2[C@H](C(=O)NCCc3ccccc3F)C[C@@]3(C)C[C@@H]23)c2c(C)cc(-c3cnc(C)nc3)cc12 [Compound 1, (1R,3S,5R)-2-(2-(3-Acetyl-7-methyl-5-(2-methylpyrimidin-5-yl)-1H-indazol-1-yl)acetyl)-N-(2-fluorophenethyl)-5-methyl-2-azabicyclo[3.1.0]hexane-3-carboxamide] | < 1000

Same assay, conditions: Human Factor D 80 nM, substrate Z-L-Lys-SBzl; Table 2; read-out: IC50 (Stars)

Row | IC50 [nM] | Structure (SMILES)
5 | < 1000 | CC(=O)c1cn(CC(=O)N2[C@H](C(=O)Nc3nc(Br)ccc3C)C[C@@]3(C)C[C@@H]23)c2c(C)cc(-c3cnc4cc(C5CC5)nn4c3)cc12 [Compound 195, (1R,3S,5R)-2-(2-(3-acetyl-5-(2-cyclopropylpyrazolo[1,5-a]pyrimidin-6-yl)-7-methyl-1H-indol-1-yl)acetyl)-N-(6-bromo-3-methylpyridin-2-yl)-5-methyl-2-azabicyclo[3.1.0]hexane-3-carboxamide]
6 | < 1000 | CC(=O)c1nn(CC(=O)N2[C@H]3CC[C@H](C3)[C@H]2C(=O)Nc2nc(C(F)(F)F)ccc2C)c2c(C)cc(-c3cncc(C4(C(=O)O)CC4)c3)cc12 [Compound 128, 1-(5-(3-Acetyl-7-methyl-1-(2-((1S,3S,4R)-3-((3-methyl-6-(trifluoromethyl)pyridin-2-yl)carbamoyl)-2-azabicyclo[2.2.1]heptan-2-yl)-2-oxoethyl)-1H-indazol-5-yl)pyridin-3-yl)cyclopropane-1-carboxylic acid]
7 | < 1000 | Cc1ncc(-c2cc3c(C(N)=O)nn(CC(=O)N4[C@H](C(=O)Nc5cncc(Br)n5)C[C@@]5(C)C[C@@H]45)c3c(C)n2)cn1 [Compound 92, 1-{2-[3-(6-Bromo-pyrazin-2-ylcarbamoyl)-5-methyl-2-aza-bicyclo[3.1.0]hex-2-yl]-2-oxo-ethyl}-7-methyl-5-(2-methyl-pyrimidin-5-yl)-1H-pyrazolo[3,4-c]pyridine-3-carboxylic acid amide]
8 | < 1000 | CC(=O)c1nn(CC(=O)N2[C@H]3CC[C@H](C3)[C@H]2C(=O)Nc2nc(C(F)(F)F)ccc2C)c2c(C)cc(-c3cnc(C(C)O)nc3)cc12 (stereo partly drawn) [Compound 171, (1S,3S,4R)-2-(2-(3-acetyl-5-(2-(1-hydroxyethyl)pyrimidin-5-yl)-7-methyl-1H-indazol-1-yl)acetyl)-N-(3-methyl-6-(trifluoromethyl)pyridin-2-yl)-2-azabicyclo[2.2.1]heptane-3-carboxamide]
9 | < 1000 | CC(=O)c1cn(CC(=O)N2[C@H](C(=O)Nc3nc(C(F)(F)F)ccc3C)C[C@@]3(C)C[C@@H]23)c2c(C)cc(-c3cnc(CF)nc3)cc12 [Compound 220, (1R,3S,5R)-2-(2-(3-acetyl-5-(2-(fluoromethyl)pyrimidin-5-yl)-7-methyl-1H-indol-1-yl)acetyl)-5-methyl-N-(3-methyl-6-(trifluoromethyl)pyridin-2-yl)-2-azabicyclo[3.1.0]hexane-3-carboxamide]
10 | < 1000 | CC(=O)c1nn(CC(=O)N2[C@H](C(=O)NCCc3cc[nH]n3)C[C@@]3(C)C[C@@H]23)c2c(C)cc(-c3cnc(C)nc3)cc12 [Compound 106, (1R,3S,5R)-2-{2-[3-acetyl-7-methyl-5-(2-methylpyrimidin-5-yl)indazol-1-yl]acetyl}-5-methyl-N-[2-(1H-pyrazol-3-yl)ethyl]-2-azabicyclo[3.1.0]hexane-3-carboxamide]
11 | < 1000 | CC(=O)c1nn(CC(=O)N2[C@H](C(=O)N[C@@H](C)C(F)(F)F)C[C@@]3(C)C[C@@H]23)c2c(C)cc(-c3cnc(C)nc3)cc12 [Compound 153, (1R,3S,5R)-2-{2-[3-acetyl-7-methyl-5-(2-methylpyrimidin-5-yl)indazol-1-yl]acetyl}-5-methyl-N-[(2S)-1,1,1-trifluoropropan-2-yl]-2-azabicyclo[3.1.0]hexane-3-carboxamide]
12 | < 1000 | CC(=O)c1nn(CC(=O)N2[C@H](C(=O)N[C@@H]3CCCCC3(F)F)C[C@@]3(C)C[C@@H]23)c2c(C)cc(-c3cnc(C)nc3)cc12 [Compound 148, (1R,3S,5R)-2-{2-[3-acetyl-7-methyl-5-(2-methylpyrimidin-5-yl)indazol-1-yl]acetyl}-N-[(1R)-2,2-difluorocyclohexyl]-5-methyl-2-azabicyclo[3.1.0]hexane-3-carboxamide]
13 | < 1000 | CCC(Cc1ccccc1)NC(=O)[C@@H]1C[C@@]2(C)C[C@H]2N1C(=O)Cn1nc(C(C)=O)c2cc(-c3cnc(C)nc3)cc(C)c21 (stereo partly drawn) [Compound 173, (1R,3S,5R)-2-{2-[3-acetyl-7-methyl-5-(2-methylpyrimidin-5-yl)indazol-1-yl]acetyl}-5-methyl-N-(1-phenylbutan-2-yl)-2-azabicyclo[3.1.0]hexane-3-carboxamide]
14 | < 1000 | CC(=O)c1nn(CC(=O)N2[C@H](C(=O)Nc3nc(Br)ccc3C)C[C@@]3(C)C[C@@H]23)c2ccc(-c3cncc(S(N)(=O)=O)c3)cc12 [Compound 71, (1R,3S,5R)-2-(2-(3-Acetyl-5-(5-sulfamoylpyridin-3-yl)-1H-indazol-1-yl)acetyl)-N-(6-bromo-3-methylpyridin-2-yl)-5-methyl-2-azabicyclo[3.1.0]hexane-3-carboxamide]
15 | < 1000 | CC(=O)c1cn(CC(=O)N2[C@H](C(=O)Nc3nc(Br)ccc3C)C[C@@]3(C)C[C@@H]23)c2c(C)c(F)c(-c3cnc(C)nc3)cc12 [Compound 240, (1R,3S,5R)-2-(2-(3-acetyl-6-fluoro-7-methyl-5-(2-methylpyrimidin-5-yl)-1H-indol-1-yl)acetyl)-N-(6-bromo-3-methylpyridin-2-yl)-5-methyl-2-azabicyclo[3.1.0]hexane-3-carboxamide]
16 | < 1000 | CC(=O)c1cn(CC(=O)N2[C@H](C(=O)Nc3nc(C(F)(F)F)ccc3C)C[C@@]3(C)C[C@@H]23)c2c(C)cc(-c3cnc4cc(C)nn4c3)cc12 [Compound 199, (1R,3S,5R)-2-(2-(3-acetyl-7-methyl-5-(2-methylpyrazolo[1,5-a]pyrimidin-6-yl)-1H-indol-1-yl)acetyl)-5-methyl-N-(3-methyl-6-(trifluoromethyl)pyridin-2-yl)-2-azabicyclo[3.1.0]hexane-3-carboxamide]
17 | < 1000 | COCc1cc(-c2cnc(C)nc2)cc2c(C(C)=O)cn(CC(=O)N3[C@H](C(=O)Nc4nc(C(F)(F)F)ccc4C)C[C@@]4(C)C[C@@H]34)c12 [Compound 238, (1R,3S,5R)-2-(2-(3-acetyl-7-(methoxymethyl)5-(2-methylpyrimidin-5-yl)-1H-indol-1-yl)acetyl)-5-methyl-N-(3-methyl-6-(trifluoromethyl)pyridin-2-yl)-2-azabicyclo[3.1.0]hexane-3-carboxamide]
18 | < 1000 | C#CCC(Cc1ccccc1)NC(=O)[C@@H]1C[C@@]2(C)C[C@H]2N1C(=O)Cn1nc(C(C)=O)c2cc(-c3cnc(C)nc3)cc(C)c21 (stereo partly drawn) [Compound 175, (1R,3S,5R)-2-{2-[3-acetyl-7-methyl-5-(2-methylpyrimidin-5-yl)indazol-1-yl]acetyl}-5-methyl-N-(1-phenylpent-4-yn-2-yl)-2-azabicyclo[3.1.0]hexane-3-carboxamide]
19 | < 1000 | CC(=O)c1nn(CC(=O)N2[C@H](C(=O)Nc3nc(Br)ccc3C)C[C@@]3(C)C[C@@H]23)c2c(C)cc(-c3ccc(CO)nc3)cc12 [Compound 82, (1R,3S,5R)-2-(2-(3-acetyl-5-(6-(hydroxymethyl)pyridin-3-yl)-7-methyl-1H-indazol-1-yl)acetyl)-N-(6-bromo-3-methylpyridin-2-yl)-5-methyl-2-azabicyclo[3.1.0]hexane-3-carboxamide]
20 | < 1000 | CC(=O)c1nn(CC(=O)N2C[C@H]3C[C@H]3[C@H]2C(=O)Nc2cncc(Br)n2)c2c(C)cc(-c3cnc(CO)nc3)cc12 [Compound 74, (1R,2S,5S)-3-(2-(3-acetyl-5-(2-(hydroxymethyl)pyrimidin-5-yl)-7-methyl-11H-indazol-1-yl)acetyl)-N-(6-bromopyrazin-2-yl)-3-azabicyclo[3.1.0]hexane-2-carboxamide]
21 | < 1000 | CC(=O)c1nn(CC(=O)N2[C@H](C(=O)NC(C)Cc3ccc(O)cc3)C[C@@]3(C)C[C@@H]23)c2c(C)cc(-c3cnc(C)nc3)cc12 (stereo partly drawn) [Compound 147, (1R,3S,5R)-2-{2-[3-acetyl-7-methyl-5-(2-methylpyrimidin-5-yl)indazol-1-yl]acetyl}-N-[1-(4-hydroxyphenyl)propan-2-yl]-5-methyl-2-azabicyclo[3.1.0]hexane-3-carboxamide]

Row | Structure (SMILES) | IC50 [nM]
22 | CC(=O)c1nn(CC(=O)N2[C@H](C(=O)N[C@H](C)CC3CC3)C[C@@]3(C)C[C@@H]23)c2c(C)cc(-c3cnc(C)nc3)cc12 [Compound 133, (1R,3S,5R)-2-{2-[3-acetyl-7-methyl-5-(2-methylpyrimidin-5-yl)indazol-1-yl]acetyl}-N-[(2R)-1-cyclopropylpropan-2-yl]-5-methyl-2-azabicyclo[3.1.0]hexane-3-carboxamide] | < 1000
